Experimental data from paper PMC3763447 (Cell Death & Disease, 2013).
Peptide text beside a SMILES is read from it. * marks the point of attachment. Cbz = O=C(OCc1ccccc1)*

Assays:
Assay in all cases: fluorogenic substrate
Type in all cases: biochemical
[1] = biological target: T1, 20S proteasome β1 subunit (PGPH activity) (Homo sapiens, UniProt P28072)
T1 sequence (P28072 35-239): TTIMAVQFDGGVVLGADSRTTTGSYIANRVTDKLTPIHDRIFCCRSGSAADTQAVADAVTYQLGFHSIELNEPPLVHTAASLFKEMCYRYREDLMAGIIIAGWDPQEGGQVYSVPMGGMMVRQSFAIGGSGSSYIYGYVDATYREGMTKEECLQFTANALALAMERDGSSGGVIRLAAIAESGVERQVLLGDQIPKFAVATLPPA

[2] = biological target: T1, 20S proteasome β1 subunit (PGPH activity); remark: listed apart in the source
[3] = biological target: T2, 20S proteasome β5 subunit (chymotrypsin-like activity) (Homo sapiens, UniProt P28074)
T2 sequence (P28074 60-263): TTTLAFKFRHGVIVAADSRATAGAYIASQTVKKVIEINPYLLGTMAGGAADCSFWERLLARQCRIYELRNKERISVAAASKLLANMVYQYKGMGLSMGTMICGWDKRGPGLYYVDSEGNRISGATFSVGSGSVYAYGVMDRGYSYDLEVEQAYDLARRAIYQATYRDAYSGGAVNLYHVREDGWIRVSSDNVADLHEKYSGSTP

Row | IC50 [2] | IC50 [3] | SMILES | fluorogenic substrate (Bz-LLE-AMC) assay with purified 20S proteasome [1]
1 |  |  | CC(C)C[C@@H](C=O)NC(=O)[C@H](CC(C)C)NC(=O)[C@H](CC(C)C)NC(=O)OCc1ccccc1 [MG132] (Cbz-Leu-Leu-Leu-aldehyde) | MG132, a known proteasome inhibitor for a positive control, showed more potent inhibition on the proteasome ChT-L and PGPH activities
2 | 5.33 µM | 6.99 µM | COc1ccc(O)c2c1Oc1cccc(c1)CCc1ccc(O)c(c1)Oc1ccc(cc1)CC2 [Mar, marchantin M] | 
